Results: patent US20240158446A1, “CYCLIC COMPOUND HAVING SELECTIVE INHIBITORY ACTION ON KRAS OVER HRAS AND NRAS” (CHUGAI SEIYAKU KABUSHIKI KAISHA, priority 2021, published 2024)
Read-outs that look alike come from different tables or passages of the source. *1 amine or outer side, *2 acyl side, *3 side chain or, on linkers, in order; H or OH if unused. Where a SMILES comes first, the peptide text is derived from it. Bridges are numbered along the chain shown (N, C = ends). [ ]: non-standard residue; d: D form. The star is where a group is joined. hPhe(3,5-F2-4-CF3) = N[C@@H](CCc1cc(F)c(C(F)(F)F)c(F)c1)C(=O)O; hPhe(3-Cl-4-CF3) = N[C@@H](CCc1ccc(C(F)(F)F)c(Cl)c1)C(=O)O; X27 = O=C([C@H](Cc1ccc(C(F)(F)F)cc1)N(CC1CC1)[*:1])[*:2]; NPrPhe(4-CF3) = CCCN[C@@H](Cc1ccc(C(F)(F)F)cc1)C(=O)O; NMeGly(cPent) = CN[C@H](C(=O)O)C1CCCC1; αMeI = CC[C@H](C)[C@](C)(N)C(=O)O; NMeD = CN[C@@H](CC(=O)O)C(=O)O; NMeL = CN[C@@H](CC(C)C)C(=O)O; Morpholide = C1CN(*)CCO1; NMeA = CN[C@@H](C)C(=O)O; Ac5c = NC1(C(=O)O)CCCC1; Aze = O=C(O)[C@@H]1CCN1; Sar = CNCC(=O)O

Experiments:
[1] = biological target: GDP-bound KRAS wild-type protein (Homo sapiens, UniProt P01116); experiment: Binding to KRAS by surface plasmon resonance (SPR), Single Cycle Kinetics; conditions: GDP-bound KRAS wild-type protein, read-out: KRAS KD
[2] = biological target: GDP-bound HRAS wild-type protein (Homo sapiens, UniProt P01112); experiment: Binding to HRAS by surface plasmon resonance (SPR), Single Cycle Kinetics; conditions: SPR, GDP-bound HRAS wild-type protein vs GDP-bound KRAS wild-type protein
[3] = biological target: GDP-bound NRAS wild-type protein (Homo sapiens, UniProt P01111); experiment: Binding to NRAS by surface plasmon resonance (SPR), Single Cycle Kinetics; conditions: SPR, GDP-bound NRAS wild-type protein vs GDP-bound KRAS wild-type protein
[4] = SPR Single Cycle Kinetics, 1:1 binding model

Sequence of GDP-bound HRAS wild-type protein (P01112 whole entry): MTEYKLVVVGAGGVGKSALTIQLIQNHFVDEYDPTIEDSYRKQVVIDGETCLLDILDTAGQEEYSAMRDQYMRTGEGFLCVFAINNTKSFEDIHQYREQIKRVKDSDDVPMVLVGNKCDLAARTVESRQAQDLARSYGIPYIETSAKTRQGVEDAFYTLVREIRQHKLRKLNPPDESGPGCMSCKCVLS
Sequence of GDP-bound KRAS wild-type protein (P01116 whole entry): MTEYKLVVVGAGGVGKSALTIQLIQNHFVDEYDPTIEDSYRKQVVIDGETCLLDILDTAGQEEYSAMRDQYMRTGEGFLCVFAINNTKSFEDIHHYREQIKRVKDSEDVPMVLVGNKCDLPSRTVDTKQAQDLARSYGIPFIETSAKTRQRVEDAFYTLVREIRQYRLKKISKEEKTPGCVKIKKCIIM
Sequence of GDP-bound NRAS wild-type protein (P01111 whole entry): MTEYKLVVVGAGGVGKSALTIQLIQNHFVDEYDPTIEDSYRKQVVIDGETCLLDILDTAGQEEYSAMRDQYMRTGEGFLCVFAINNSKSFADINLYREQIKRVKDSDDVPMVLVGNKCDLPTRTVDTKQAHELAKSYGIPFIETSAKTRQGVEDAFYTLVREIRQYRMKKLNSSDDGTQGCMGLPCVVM

Compound | Kd ([1]; SPR, Single Cycle Kinetics) | HRAS/KRAS (ratio of KD value for HRAS to KD value for KRAS) [2] | NRAS/KRAS (ratio of KD value for NRAS to KD value for KRAS) [3] | Kd [1, 4] | further results
CCO[C@@H]1C[C@H]2C(=O)NC3(CC(C)(C)C3)C(=O)N(C)[C@@H](C3CCCC3)C(=O)N(C)[C@H](C(=O)N(C)CC)CC(=O)N(C)[C@H]3CCCCCCc4ccc(cc4)C[C@@H](C(=O)N(C)CC(=O)N[C@@H](CCc4ccc(C(F)(F)F)c(OC)c4)C(=O)N2C1)N1CC/C=C\C[C@@H](C1=O)N(C)C(=O)CN(C)C(=O)[C@H]([C@@H](C)CC)NC3=O [PP2260, (1S,7S,11R,13S,19S,22S,26S,29S,35S,37Z)-19-cyclopentyl-11-ethoxy-N-ethyl-7-[2-[3-methoxy-4-(trifluoromethyl)phenyl]ethyl]-N,3,3′,3′,18,21,25,31,34-nonamethyl-29-[(1S)-1-methylpropyl]-2,5,8,14,17,20,24,27,30,33,55-undecaoxo-spiro[3,6,9,15,18,21,25,28,31,34,41-undecazapentacyclo[24.15.11.2^43,46.1^35,41.0^9,13]pentapentaconta-37,43(54),44,46(53)-tetraene-16,1′-cyclobutane]-22-carboxamide] | 0.12 nM | A (a compound having 10 or more and less than 20 is denoted as A) | A (a compound having 10 or more and less than 20 is denoted as A) | – | –
CCO[C@@H]1C[C@H]2C(=O)NC3(CC(C)(C)C3)C(=O)N(C)[C@@H](C(CC)CC)C(=O)N(C)[C@H](C(=O)N(C)C)CC(=O)N(C)[C@@H](CC3CCC3)C(=O)N[C@@H]([C@@H](C)CC)C(=O)N(C)CC(=O)N(C)[C@H]3C/C=C\CCN(C3=O)[C@@H](Cc3ccc(C(F)(F)F)cc3)C(=O)N(C)CC(=O)N[C@@H](CCc3ccc(Cl)c(Cl)c3)C(=O)N2C1 [PP2180] | 0.66 nM | A (a compound having 10 or more and less than 20 is denoted as A) | AA (a compound having 20 or more is denoted as AA) | – | –
CC[C@H](C)[C@@H]1NC(=O)[C@H](CC(C)C)N(C)C(=O)C[C@@H](C(=O)N2CCOCC2)N(C)C(=O)[C@H](C2CCCC2)N(C)C(=O)C2(CCC2)NC(=O)[C@@H]2[C@@H](OCC3CC3)CCN2C(=O)[C@H](CCc2cc(F)c(C(F)(F)F)c(F)c2)NC(=O)CN(C)C(=O)[C@H](Cc2ccc(C(F)(F)F)cc2)N2CCCC[C@@H](C2=O)N(C)C(=O)CN(C)C1=O [PP1072] | 0.063 nM | B (a compound having 3 or more and less than 10 is denoted as B) | B (a compound having 3 or more and less than 10 is denoted as B) | – | –
CCO[C@@H]1C[C@H]2C(=O)NC3(CCC3)C(=O)N(C)[C@@H](C3CCCC3)C(=O)N(C)[C@H](C(=O)N(C)C)CC(=O)N(C)C[C@@H](C)C(=O)N[C@@H]([C@@H](C)CC)C(=O)N(C)CC(=O)N(C)[C@H]3CCCCN(C3=O)[C@@H](Cc3ccc(C(F)(F)F)cc3)C(=O)N(C)CC(=O)N[C@@H](CCc3cc(F)c(C(F)(F)F)c(F)c3)C(=O)N2C1 [PP0706] | – | – | – | 3.6 nM | HRAS/KRAS (ratio of KD value with respect to HRAS to KD value with respect to KRAS) [2]: B (a compound having 3 or more and less than 10 is denoted as B); NRAS/KRAS (ratio of KD value with respect to NRAS to KD value with respect to KRAS) [3]: B (a compound having 3 or more and less than 10 is denoted as B)
CCCN1C(=O)CN(C)C(=O)CN(C)C(=O)[C@H]([C@@H](C)CC)NC(=O)[C@H](CC(C)C)N(C)C(=O)C[C@@H](C(=O)N(C)C)N(C)C(=O)[C@H](C2CCCC2)N(C)C(=O)[C@](C)([C@@H](C)CC)NC(=O)[C@@H]2CCCN2C(=O)[C@H](CCc2cc(F)c(C(F)(F)F)c(F)c2)NC(=O)CN(C)C(=O)[C@@H]1Cc1ccc(C(F)(F)F)cc1 [PP0736] ([NMeL]I[Sar][Sar][NPrPhe(4-CF3)][Sar][hPhe(3,5-F2-4-CF3)]P[αMeI][NMeGly(cPent)][NMeD]-NMe2; lactam N-11) | – | – | – | 1.8 nM | HRAS/KRAS (ratio of KD value with respect to HRAS to KD value with respect to KRAS) [2]: C (A compound having a KD ratio of 0.1 or more and less than 3 is denoted as C); NRAS/KRAS (ratio of KD value with respect to NRAS to KD value with respect to KRAS) [3]: B (a compound having 3 or more and less than 10 is denoted as B)
CCC[C@H]1C(=O)N[C@@H]([C@@H](C)CC)C(=O)N(C)CC(=O)N(C)[C@H]2C/C=C\CCN(C2=O)[C@@H](Cc2ccc(C)cc2)C(=O)N(C)CC(=O)N[C@@H](CCc2ccc(C(F)(F)F)c(Cl)c2)C(=O)N2C[C@H](CC)C[C@H]2C(=O)NC2(CC(C)(C)C2)C(=O)N(C)[C@@H](C2CCCC2)C(=O)N(C)[C@H](C(=O)N(C)C)CC(=O)N1C [PP2212] | 0.34 nM | B (a compound having 3 or more and less than 10 is denoted as B) | A (a compound having 10 or more and less than 20 is denoted as A) | – | –
CCO[C@@H]1C[C@H]2C(=O)NC3(CCC3)C(=O)N(C)[C@@H](C3CCCC3)C(=O)N(C)[C@H](C(=O)N3CCOCC3)CC(=O)N(C)[C@@H](COC)C(=O)N[C@@H]([C@@H](C)CC)C(=O)NCC(=O)N(C)[C@H]3CCCCCN(C3=O)[C@@H](Cc3ccc(C(F)(F)F)cc3)C(=O)N(C)CC(=O)N[C@@H](CCc3cc(F)c(C(F)(F)F)c(F)c3)C(=O)N2C1 [PP0858] | 0.66 nM | B (a compound having 3 or more and less than 10 is denoted as B) | B (a compound having 3 or more and less than 10 is denoted as B) | – | –
CCO[C@@H]1C[C@H]2C(=O)NC3(CCCC3)C(=O)N(C)[C@@H](C3CCCC3)C(=O)N(C)[C@H](C)CC(=O)N(C)[C@@H](CC(C)C)C(=O)N[C@@H]([C@@H](C)CC)C(=O)N(C)CC(=O)N(C)[C@H]3C/C=C\CCN(C3=O)[C@@H](Cc3ccc(C(F)(F)F)cc3)C(=O)N(C)CC(=O)N[C@@H](CCc3cc(F)c(C(F)(F)F)c(F)c3)C(=O)N2C1 [PP1096] | 0.24 nM | B (a compound having 3 or more and less than 10 is denoted as B) | B (a compound having 3 or more and less than 10 is denoted as B) | – | –
CC[C@H](C)[C@@H]1NC(=O)[C@H](CC(C)C)N(C)C(=O)C[C@@H](C(=O)N2CCOCC2)N(C)C(=O)[C@H](C2CCCC2)N(C)C(=O)C2(CCCC2)NC(=O)[C@@H]2CCCN2C(=O)[C@H](CCc2ccc(C(F)(F)F)c(Cl)c2)NC(=O)CN(C)C(=O)[C@H](Cc2ccc(OC)cc2)N2CC=CC[C@@H](C2=O)N(C)C(=O)CN(C)C1=O [PP0535] | – | – | – | 0.5 nM | HRAS/KRAS (ratio of KD value with respect to HRAS to KD value with respect to KRAS) [2]: B (a compound having 3 or more and less than 10 is denoted as B); NRAS/KRAS (ratio of KD value with respect to NRAS to KD value with respect to KRAS) [3]: C (A compound having a KD ratio of 0.1 or more and less than 3 is denoted as C)
CCO[C@@H]1C[C@H]2C(=O)NC3(CC(C)(C)C3)C(=O)N(C)[C@@H](C(CC)CC)C(=O)N(C)[C@H](C(=O)N3CCCC3)CC(=O)N(C)[C@@H](C)C(=O)N[C@@H]([C@@H](C)CC)C(=O)N(C)CC(=O)N(C)[C@H]3C/C=C\CCN(C3=O)[C@@H](Cc3ccc(C(F)(F)F)cc3)C(=O)N(C)CC(=O)N[C@@H](CCc3ccc(C(F)(F)F)c(OC)c3)C(=O)N2C1 [PP2163] | 0.41 nM | A (a compound having 10 or more and less than 20 is denoted as A) | A (a compound having 10 or more and less than 20 is denoted as A) | – | –
CC[C@H](C)[C@@H]1NC(=O)[C@H](CC(C)C)N(C)C(=O)C[C@@H](C(=O)N2CCOCC2)N(C)C(=O)[C@H](C2CCCC2)N(C)C(=O)C2(CCCC2)NC(=O)[C@@H]2CCCN2C(=O)[C@H](CCc2ccc(C(F)(F)F)c(Cl)c2)NC(=O)CN(C)C(=O)[C@H](Cc2ccc(C(F)(F)F)cc2)N(CC2CC2)C(=O)[C@@H]2CCN2C(=O)[C@H](C)N(C)C1=O [PP0108] ([NMeL]I[NMeA][Aze][X27][Sar][hPhe(3-Cl-4-CF3)]P[Ac5c][NMeGly(cPent)][NMeD]-Morpholide; lactam N-11) | – | C (A compound having a KD ratio of 0.1 or more and less than 3 is denoted as C) | C (A compound having a KD ratio of 0.1 or more and less than 3 is denoted as C) | 0.2 nM | –
CC[C@H](C)[C@@H]1NC(=O)[C@H](CC(C)C)N(C)C(=O)C[C@@H](C(=O)N(C)C)N(C)C(=O)[C@H](C2CCCC2)N(C)C(=O)C2(CCC2)NC(=O)[C@@H]2[C@@H](OCC(F)F)CCN2C(=O)[C@H](CCc2cc(F)c(C(F)(F)F)c(F)c2)NC(=O)CN(C)C(=O)[C@H](Cc2ccc(C(F)(F)F)cc2)N2CC/C=C\C[C@@H](C2=O)N(C)C(=O)CN(C)C1=O [PP1534, (2S,8S,13S,14S,20S,23S,27S,30S,36S,38Z)-20-cyclopentyl-13-(2,2-difluoroethoxy)-8-[2-[3,5-difluoro-4-(trifluoromethyl)phenyl]ethyl]-27-isobutyl-N,N,4,19,22,26,32,35-octamethyl-30-[(1S)-1-methylpropyl]-3,6,9,15,18,21,25,28,31,34,42-undecaoxo-2-[[4-(trifluoromethyl)phenyl]methyl]spiro[1,4,7,10,16,19,22,26,29,32,35-undecazatricyclo[34.5.1.0^10,14]dotetracont-38-ene-17,1′-cyclobutane]-23-carboxamide] | – | – | – | – | Kd ([1]; SPR, Single Cycle Kinetics, 1:1 binding model): 0.13 nM; HRAS/KRAS (ratio of KD value for HRAS to KD value for KRAS) ([2]; KD ratio class): A (a compound having 10 or more and less than 20 is denoted as A); NRAS/KRAS (ratio of KD value for NRAS to KD value for KRAS) ([3]; KD ratio class): AA (a compound having 20 or more is denoted as AA)
CCO[C@@H]1C[C@H]2C(=O)NC3(CCCC3)C(=O)N(C)[C@@H](C3CCCC3)C(=O)N(C)[C@H](C(=O)N(C)C)CC(=O)N(C)[C@@H](CC)C(=O)N[C@@H]([C@@H](C)CC)C(=O)N(C)CC(=O)N(C)[C@H]3C[C@@H](C)CCN(C3=O)[C@@H](Cc3ccc(C(F)(F)F)cc3)C(=O)N(C)CC(=O)N[C@@H](CCc3cc(F)c(C(F)(F)F)c(F)c3)C(=O)N2C1 [PP1022] | 0.036 nM | B (a compound having 3 or more and less than 10 is denoted as B) | C (A compound having a KD ratio of 0.1 or more and less than 3 is denoted as C) | – | –
